Assay results as given in ChEMBL document CHEMBL1201862, “PubChem BioAssay data set” (2004).
Calls of active or inactive are those of the source.

Tests used:
[1] = molecular target: T1, Corticotropin-releasing factor receptor 2/Corticotropin-releasing factor-binding protein (Homo sapiens, UniProt P24387+Q13324); experiment: Dose Response confirmation of uHTS hits for small molecule antagonists of the CRF-binding protein and CRF-R2 receptor complex.; type: functional; conditions: read-out: IC50_Mean
T1 sequence (Q13324 whole entry): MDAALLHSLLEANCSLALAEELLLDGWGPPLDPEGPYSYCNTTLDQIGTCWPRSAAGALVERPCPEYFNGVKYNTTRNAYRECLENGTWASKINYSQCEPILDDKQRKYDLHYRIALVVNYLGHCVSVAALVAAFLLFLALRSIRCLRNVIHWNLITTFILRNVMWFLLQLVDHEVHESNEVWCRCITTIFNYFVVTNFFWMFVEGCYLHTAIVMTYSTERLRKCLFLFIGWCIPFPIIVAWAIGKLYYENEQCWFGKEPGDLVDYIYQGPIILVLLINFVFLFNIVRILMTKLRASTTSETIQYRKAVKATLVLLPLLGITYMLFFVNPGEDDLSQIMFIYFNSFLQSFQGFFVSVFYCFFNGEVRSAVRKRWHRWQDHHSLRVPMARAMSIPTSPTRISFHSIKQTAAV
T1 sequence (P24387 whole entry): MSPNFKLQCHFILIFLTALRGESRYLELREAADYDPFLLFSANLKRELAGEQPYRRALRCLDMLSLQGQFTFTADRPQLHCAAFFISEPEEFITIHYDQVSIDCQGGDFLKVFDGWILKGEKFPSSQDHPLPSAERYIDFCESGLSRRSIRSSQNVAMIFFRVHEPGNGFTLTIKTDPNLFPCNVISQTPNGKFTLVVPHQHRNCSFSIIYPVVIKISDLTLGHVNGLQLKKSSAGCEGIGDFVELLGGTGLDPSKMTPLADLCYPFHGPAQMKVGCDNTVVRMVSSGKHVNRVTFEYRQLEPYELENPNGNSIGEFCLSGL

[2] = blockers of CRF-binding protein–CRF-R2 complex – cell-based, uHTS hits, 384-well, dose response (AID 651639); type: functional, Homo sapiens; conditions: read-out: IC50_Mean
[3] = molecular target: Acyl-homoserine lactone acylase PvdQ (Pseudomonas aeruginosa (strain LESB58), UniProt Q9I194); experiment: PvdQ acylase enzyme activity blockers – biochemical, fluorescence, plate reader and imaging, cherry-picks, dose response (AID 493231)
[4] = molecular target: T1, Corticotropin-releasing factor receptor 2/Corticotropin-releasing factor-binding protein; experiment: activators of CRF receptor 2 with binding protein – uHTS hits, confirmation (AID 602473); type: functional; conditions: read-out: EC50_Mean
[5] = molecular target: Female germline-specific tumor suppressor gld-1 (Caenorhabditis elegans, UniProt Q17339); experiment: blockers of GLD-1/TGE RNA complex formation – biochemical, fluorescence polarization, C. elegans, dose response (AID 2802);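 note: fluorescence polarization of labeled TGE RNA bound by purified gld-1 protein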
[6] = molecular target: T2, Polyadenylate-binding protein 1 (Homo sapiens, UniProt P11940); experiment: MLLE domain peptide-binding blockers, IC50 – biochemical, fluorescence polarization, FITC-PAM2 peptide, dose response (AID 602259); type: functional; conditions: read-out: IC50_Mean
[7] = molecular target: T2, Polyadenylate-binding protein 1; experiment: MLLE binding blockers, Cy5 peptide tracer – biochemical, fluorescence polarization, Cy5-PAM2 peptide, secondary, miRNA deadenylation inhibitor project, dose response (AID 602260); type: functional; conditions: read-out: IC50_Mean
Protein Rev = Protein Rev (Human immunodeficiency virus type 1 group M subtype B (isolate HXB2)(HIV-1), UniProt P04618); experiment: blockers of HIV Rev/RRE RNA complex – biochemical, fluorescence polarization, HIV-1, dose response (AID 434976); parameters: species or system Human immunodeficiency virus 1
Estrogen receptor beta = Estrogen receptor beta (Homo sapiens, UniProt Q92731);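 note: recombinant ER-beta bound to coactivator SRC1 peptide in presence of estradiol agonist; inhibitors block coactivator peptide binding and lower the FRET signal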
[8] = molecular target: T3, Voltage-dependent T-type calcium channel subunit alpha-1H (Homo sapiens, UniProt O95180); experiment: Inhibitors of T-Type Calcium Channels. [Related pubchem assays (depositor defined):AID449739, AID463087, AID489005, AID493041, AID504579, AID504584, AID504619, AID504628]; type: functional
[9] = molecular target: T3, Voltage-dependent T-type calcium channel subunit alpha-1H; type: functional
Estrogen receptor = molecular target: T4, Estrogen receptor (Homo sapiens, UniProt P03372); experiment: ERα coactivator recruitment enhancers – biochemical, TR-FRET, ERα LBD, dose response (AID 737)
T4 sequence (P03372 whole entry): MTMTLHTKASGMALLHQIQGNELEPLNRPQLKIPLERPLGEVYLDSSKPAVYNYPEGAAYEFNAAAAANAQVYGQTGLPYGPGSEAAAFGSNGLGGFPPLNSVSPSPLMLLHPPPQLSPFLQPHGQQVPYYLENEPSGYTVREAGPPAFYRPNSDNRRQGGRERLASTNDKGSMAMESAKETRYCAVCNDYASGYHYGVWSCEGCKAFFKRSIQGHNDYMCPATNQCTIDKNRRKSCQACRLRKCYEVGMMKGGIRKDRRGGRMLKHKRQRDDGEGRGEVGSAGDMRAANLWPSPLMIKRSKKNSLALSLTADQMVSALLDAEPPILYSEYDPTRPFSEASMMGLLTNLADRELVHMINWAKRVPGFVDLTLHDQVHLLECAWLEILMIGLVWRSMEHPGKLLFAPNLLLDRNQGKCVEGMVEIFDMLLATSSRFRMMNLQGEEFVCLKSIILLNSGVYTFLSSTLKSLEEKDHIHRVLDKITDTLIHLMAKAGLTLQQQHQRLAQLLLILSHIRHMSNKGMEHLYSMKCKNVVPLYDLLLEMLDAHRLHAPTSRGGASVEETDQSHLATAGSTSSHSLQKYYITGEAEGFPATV

[10] = A cytotoxicity screen of small molecule inhibitors of the PhoP region in Salmonella typhi identified in the primary screen. [Related pubchem assays: 1850, 1864, 1985 ]; type: functional
[11] = molecular target: Cyclin-dependent kinase 5/CDK5 activator 1 (Homo sapiens, UniProt Q00535); experiment: blockade of human CDK5 activity – biochemical, cherry-picked samples, set 2, dose response (AID 504545)
Sequence of Cyclin-dependent kinase 5/CDK5 activator 1 (Q00535 whole entry): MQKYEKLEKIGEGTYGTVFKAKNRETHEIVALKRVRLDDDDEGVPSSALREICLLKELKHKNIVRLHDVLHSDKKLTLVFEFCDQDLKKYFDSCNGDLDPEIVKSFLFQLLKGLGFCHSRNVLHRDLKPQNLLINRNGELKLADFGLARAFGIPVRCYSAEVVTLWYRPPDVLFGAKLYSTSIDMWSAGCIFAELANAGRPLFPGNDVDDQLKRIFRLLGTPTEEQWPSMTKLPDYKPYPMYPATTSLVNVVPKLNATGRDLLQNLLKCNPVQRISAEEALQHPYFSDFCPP
Sequence of Cyclin-dependent kinase 5/CDK5 activator 1 (Q15078 whole entry, further chain): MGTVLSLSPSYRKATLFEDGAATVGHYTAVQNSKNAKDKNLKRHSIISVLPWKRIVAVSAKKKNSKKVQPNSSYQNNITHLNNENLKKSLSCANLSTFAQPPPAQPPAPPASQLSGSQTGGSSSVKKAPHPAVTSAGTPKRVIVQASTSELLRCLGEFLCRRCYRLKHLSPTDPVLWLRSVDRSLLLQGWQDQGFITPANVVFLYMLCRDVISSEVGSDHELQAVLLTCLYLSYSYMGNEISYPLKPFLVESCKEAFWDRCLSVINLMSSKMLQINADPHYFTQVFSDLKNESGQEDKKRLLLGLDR

T2 sequence (P11940 whole entry, the tested form may be a part): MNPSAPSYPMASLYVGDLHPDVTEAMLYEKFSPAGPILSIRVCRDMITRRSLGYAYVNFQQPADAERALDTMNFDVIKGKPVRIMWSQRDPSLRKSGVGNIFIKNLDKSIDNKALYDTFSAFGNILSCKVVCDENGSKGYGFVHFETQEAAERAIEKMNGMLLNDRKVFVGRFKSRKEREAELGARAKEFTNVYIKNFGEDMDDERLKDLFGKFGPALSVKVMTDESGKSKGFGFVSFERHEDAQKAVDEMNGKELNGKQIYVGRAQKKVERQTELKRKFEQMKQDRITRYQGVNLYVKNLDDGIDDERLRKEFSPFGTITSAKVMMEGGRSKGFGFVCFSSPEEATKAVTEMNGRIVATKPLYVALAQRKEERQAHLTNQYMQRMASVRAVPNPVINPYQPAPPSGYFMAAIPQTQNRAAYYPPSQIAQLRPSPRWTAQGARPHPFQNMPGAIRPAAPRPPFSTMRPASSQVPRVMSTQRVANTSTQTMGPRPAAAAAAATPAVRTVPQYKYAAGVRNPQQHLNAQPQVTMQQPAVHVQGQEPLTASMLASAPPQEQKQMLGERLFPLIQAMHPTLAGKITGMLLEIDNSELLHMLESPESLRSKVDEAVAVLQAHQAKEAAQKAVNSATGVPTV
T3 sequence (O95180 whole entry): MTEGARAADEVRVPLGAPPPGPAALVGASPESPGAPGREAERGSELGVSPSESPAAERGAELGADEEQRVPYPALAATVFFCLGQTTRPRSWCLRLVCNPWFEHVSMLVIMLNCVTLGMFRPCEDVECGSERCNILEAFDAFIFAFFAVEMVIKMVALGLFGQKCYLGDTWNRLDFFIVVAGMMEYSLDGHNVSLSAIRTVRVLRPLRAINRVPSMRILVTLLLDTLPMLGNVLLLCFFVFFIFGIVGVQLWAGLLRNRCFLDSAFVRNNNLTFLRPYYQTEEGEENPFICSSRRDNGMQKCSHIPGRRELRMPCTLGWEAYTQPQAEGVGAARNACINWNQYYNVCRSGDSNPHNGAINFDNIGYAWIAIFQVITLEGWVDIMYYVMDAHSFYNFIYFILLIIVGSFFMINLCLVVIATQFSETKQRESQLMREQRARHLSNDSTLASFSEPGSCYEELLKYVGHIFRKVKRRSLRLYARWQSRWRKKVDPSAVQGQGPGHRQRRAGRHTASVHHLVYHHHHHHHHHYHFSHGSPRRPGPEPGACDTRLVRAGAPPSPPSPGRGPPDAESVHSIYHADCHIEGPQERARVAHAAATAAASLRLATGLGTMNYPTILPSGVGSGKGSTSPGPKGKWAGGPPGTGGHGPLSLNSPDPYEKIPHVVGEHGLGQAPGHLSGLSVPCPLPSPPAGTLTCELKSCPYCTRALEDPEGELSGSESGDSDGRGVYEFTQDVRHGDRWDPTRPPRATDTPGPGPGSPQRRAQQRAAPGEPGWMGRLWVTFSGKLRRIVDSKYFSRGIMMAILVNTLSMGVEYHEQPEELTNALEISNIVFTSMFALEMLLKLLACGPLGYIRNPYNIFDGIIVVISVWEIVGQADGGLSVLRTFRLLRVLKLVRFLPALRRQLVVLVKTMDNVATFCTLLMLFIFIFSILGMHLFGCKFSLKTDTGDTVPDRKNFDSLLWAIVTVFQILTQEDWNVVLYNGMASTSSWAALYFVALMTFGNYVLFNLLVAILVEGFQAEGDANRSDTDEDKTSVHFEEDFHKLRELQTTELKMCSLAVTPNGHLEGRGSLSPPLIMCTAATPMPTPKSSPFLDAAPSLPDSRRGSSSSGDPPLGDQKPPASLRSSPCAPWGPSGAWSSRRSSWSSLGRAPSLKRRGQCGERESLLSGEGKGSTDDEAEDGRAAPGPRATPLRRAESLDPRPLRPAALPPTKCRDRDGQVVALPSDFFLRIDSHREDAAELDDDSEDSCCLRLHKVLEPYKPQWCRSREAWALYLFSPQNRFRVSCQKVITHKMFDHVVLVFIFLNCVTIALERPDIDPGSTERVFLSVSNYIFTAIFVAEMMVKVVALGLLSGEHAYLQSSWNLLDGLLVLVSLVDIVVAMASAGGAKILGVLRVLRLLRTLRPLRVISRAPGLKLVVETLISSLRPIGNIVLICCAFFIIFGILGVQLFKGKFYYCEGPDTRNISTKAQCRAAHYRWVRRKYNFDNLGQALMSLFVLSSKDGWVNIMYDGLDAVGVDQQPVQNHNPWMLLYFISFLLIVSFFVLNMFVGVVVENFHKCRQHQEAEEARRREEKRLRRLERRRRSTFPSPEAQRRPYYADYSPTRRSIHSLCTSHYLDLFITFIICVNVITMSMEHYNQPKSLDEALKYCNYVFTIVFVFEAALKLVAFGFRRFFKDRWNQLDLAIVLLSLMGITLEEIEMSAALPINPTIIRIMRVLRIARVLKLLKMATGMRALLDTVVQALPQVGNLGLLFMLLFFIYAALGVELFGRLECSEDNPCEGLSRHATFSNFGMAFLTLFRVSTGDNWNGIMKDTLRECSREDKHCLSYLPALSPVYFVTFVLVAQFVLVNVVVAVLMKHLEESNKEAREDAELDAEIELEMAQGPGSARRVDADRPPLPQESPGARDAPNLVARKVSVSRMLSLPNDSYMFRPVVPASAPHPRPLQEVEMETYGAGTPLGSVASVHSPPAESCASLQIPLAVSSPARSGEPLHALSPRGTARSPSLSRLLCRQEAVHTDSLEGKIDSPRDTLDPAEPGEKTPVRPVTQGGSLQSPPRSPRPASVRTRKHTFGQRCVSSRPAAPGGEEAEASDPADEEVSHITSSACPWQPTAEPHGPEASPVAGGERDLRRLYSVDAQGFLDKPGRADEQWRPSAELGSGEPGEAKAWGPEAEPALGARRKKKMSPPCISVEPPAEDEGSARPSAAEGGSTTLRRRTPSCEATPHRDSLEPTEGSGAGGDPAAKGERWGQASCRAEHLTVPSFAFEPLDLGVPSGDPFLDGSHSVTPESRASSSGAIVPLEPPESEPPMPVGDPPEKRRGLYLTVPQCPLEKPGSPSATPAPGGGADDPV
Sequence of Female germline-specific tumor suppressor gld-1 (Q17339 whole entry, the tested form may be a part): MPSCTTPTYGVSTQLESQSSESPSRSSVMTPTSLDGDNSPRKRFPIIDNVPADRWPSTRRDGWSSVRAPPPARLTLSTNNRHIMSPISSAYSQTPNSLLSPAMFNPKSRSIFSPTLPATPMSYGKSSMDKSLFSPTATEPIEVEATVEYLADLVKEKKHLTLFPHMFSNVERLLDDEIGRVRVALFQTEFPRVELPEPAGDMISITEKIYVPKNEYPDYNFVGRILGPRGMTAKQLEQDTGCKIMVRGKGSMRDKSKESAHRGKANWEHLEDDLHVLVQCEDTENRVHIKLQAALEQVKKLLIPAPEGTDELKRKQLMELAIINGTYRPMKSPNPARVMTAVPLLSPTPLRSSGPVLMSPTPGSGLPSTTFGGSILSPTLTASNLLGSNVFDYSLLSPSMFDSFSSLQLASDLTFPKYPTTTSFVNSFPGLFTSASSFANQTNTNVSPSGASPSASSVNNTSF
Sequence of Protein Rev (P04618 whole entry): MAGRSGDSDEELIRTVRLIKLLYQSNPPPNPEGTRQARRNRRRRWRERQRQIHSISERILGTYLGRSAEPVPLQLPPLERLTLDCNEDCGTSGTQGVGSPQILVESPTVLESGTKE
Sequence of Acyl-homoserine lactone acylase PvdQ (Q9I194 24-193 limits assumed): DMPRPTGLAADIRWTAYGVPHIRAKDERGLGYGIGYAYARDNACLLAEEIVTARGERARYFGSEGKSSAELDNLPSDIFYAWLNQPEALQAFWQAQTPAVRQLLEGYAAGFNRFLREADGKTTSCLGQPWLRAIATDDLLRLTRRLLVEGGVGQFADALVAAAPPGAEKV
Sequence of Acyl-homoserine lactone acylase PvdQ (Q9I194 217-762 limits assumed): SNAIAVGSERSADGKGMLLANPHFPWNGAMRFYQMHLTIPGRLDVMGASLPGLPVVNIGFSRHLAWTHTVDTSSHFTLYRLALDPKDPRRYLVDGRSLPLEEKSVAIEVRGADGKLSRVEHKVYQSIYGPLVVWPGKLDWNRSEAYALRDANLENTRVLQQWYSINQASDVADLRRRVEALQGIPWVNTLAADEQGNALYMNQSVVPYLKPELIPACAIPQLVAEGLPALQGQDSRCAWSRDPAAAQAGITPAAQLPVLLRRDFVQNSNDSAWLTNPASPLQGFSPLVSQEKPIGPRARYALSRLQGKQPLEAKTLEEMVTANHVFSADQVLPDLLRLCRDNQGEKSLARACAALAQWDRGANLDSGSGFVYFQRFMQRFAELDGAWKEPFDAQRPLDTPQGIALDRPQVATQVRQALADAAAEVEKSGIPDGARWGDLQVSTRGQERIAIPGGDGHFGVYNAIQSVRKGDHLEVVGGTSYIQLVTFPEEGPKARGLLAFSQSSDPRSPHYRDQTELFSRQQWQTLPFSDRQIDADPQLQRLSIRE

## O=[N+]([O-])c1cccnc1Sc1ccc(Cl)cc1
[1]
  IC50: < 0.368 µM (active)
[2]
  IC50: 3.1 µM (active)
[3]
  AC50: 30.1 µM (active)
[4]
  EC50: > 53 µM (inactive)

## Cc1ccc2c3c(cccc13)-c1ccccc1C2=O
[5]
  IC50: 2.67 µM (active)
[6]
  IC50: 51.1 µM (inactive)
[7]
  IC50: 38.3 µM (inactive)
Protein Rev
  IC50: 10.1 µM (not active)

## COc1ccc(-c2noc(CCC(=O)N3CCN(c4cccc(C(F)(F)F)c4)CC3)n2)cc1
Estrogen receptor beta
  IC50: > 50 µM (not active)
[8]
  EC50: 4.32 µM (active)
[9]
  EC50: 1.62 µM (active)

## Cc1nn(-c2ccc(Cl)cc2)c2sc(C(=O)N3CCN(c4ccccn4)CC3)cc12
Estrogen receptor
  EC50: 12.8 µM (active)

## CC(C)c1ccc(NC(=O)CSc2nnc(-c3ccccn3)n2C)cc1
[10]
  EC50: > 50 µM (active)

## Nc1nc(Nc2cccc(Cl)c2)nc(NCCO)c1[N+](=O)[O-]
[11]
  AC50: 8.21 µM (active)
